Structures are written as SMILES. pIC50: −log10 of the molar value.

The subject of one experiment is stomach mRNA. Put plainly: Stomach transcriptome (RNAseq) after oral ENT-01 in old mice. The format is in vivo. As to conditions: old mice after treatment. The procedure:
(§1) Male C57Bl/6 mice, aged 20 and 78 weeks, were obtained from Jackson labs. Animals were exposed to 12 hr light dark cycles and provided Teklad standard mouse diet and water ad lib.
(§2) Animals were dosed once daily by oral gavage in the morning for a total of 14 days. Animals were fasted 3-4 hours prior to dosing and at least 1 hour following dosing, with fasting not to exceed 6 hours. The test article was dissolved in 0.5% hydroxypropylcellulose in water. On day 15 the animals were euthanized by CO2 asphyxiation, necropsied, and tissues prepared for histology and RNAseq analysis.
The GI tracts of the animals were sectioned into stomach, duodenum, jejunum, ileum, caecum, colon, and rectum. The tissues were then sent for histology, and the transcriptomes analyzed by RNAseq.

Experiment [1] relates to stomach tissues gene expression. Put plainly: Stomach RNA-sequencing, effect size evaluation of treatment contrasts. The format is in vivo, mice. The protocol:
as §1, §2
Samples of stomach tissues from the mice were analysed by RNA-sequencing on an Illumina platform.
A four-fold change in expression between groups was used as a measure of pseudo-significance in the absence of replicate samples. At this threshold, differentially expressed genes were identified in all contrasts. […]

For another experiment, the target named is T1, PTPN11/SHP2-FL (E76K) (Homo sapiens, UniProt Q06124, E76K).
T1 sequence (Q06124 2-597 isoform Q06124-1 E76K): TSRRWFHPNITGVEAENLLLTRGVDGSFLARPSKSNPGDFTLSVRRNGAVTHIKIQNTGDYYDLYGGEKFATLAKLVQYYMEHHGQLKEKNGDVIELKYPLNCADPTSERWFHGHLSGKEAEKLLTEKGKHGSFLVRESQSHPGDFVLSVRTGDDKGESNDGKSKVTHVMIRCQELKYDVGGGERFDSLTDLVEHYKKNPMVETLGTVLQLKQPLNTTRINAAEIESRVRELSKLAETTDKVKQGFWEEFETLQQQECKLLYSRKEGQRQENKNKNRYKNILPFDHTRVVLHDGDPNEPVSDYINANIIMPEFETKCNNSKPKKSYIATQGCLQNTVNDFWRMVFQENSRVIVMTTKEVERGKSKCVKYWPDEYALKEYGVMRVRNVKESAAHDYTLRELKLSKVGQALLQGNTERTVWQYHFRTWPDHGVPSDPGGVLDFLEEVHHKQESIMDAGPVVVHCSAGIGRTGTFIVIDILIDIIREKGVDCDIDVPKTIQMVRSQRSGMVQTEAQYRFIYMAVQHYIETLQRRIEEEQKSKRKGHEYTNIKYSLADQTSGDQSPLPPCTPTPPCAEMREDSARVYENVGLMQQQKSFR
Put plainly: Phosphatase assay PTPN11/SHP2-FL (E76K).

A further experiment concerns the target T2, PP1B (Homo sapiens, UniProt P62140).
T2 construct: purchased Recation Biology Inc
The experiment can be described thus: Phosphatase assay PP1B (DiFMUP fluorescence). The format is biochemical.

The next experiment has as its target T3, PP1A (Homo sapiens, UniProt P62136).
T3 construct: purchased Recation Biology Inc
The experiment can be described thus: Phosphatase assay PP1A (DiFMUP fluorescence). Format: biochemical.

Experiment [2] has as its target T4, PP2A Alpha/PP2R1A Complex (Homo sapiens, UniProt P67775).
T4 construct: purchased Recation Biology Inc
The experiment can be described thus: Phosphatase assay PP2A Alpha/PP2R1A Complex. The format is biochemical.

Another experiment addresses T5, PTPN6/SHP1 (Homo sapiens, UniProt P29350).
T5 construct: purchased Recation Biology Inc
The experiment can be described thus: Phosphatase assay PTPN6/SHP1. Format: biochemical.

Another experiment deals with T6, PTPN2/TC-PTP (Homo sapiens, UniProt P17706).
T6 construct: purchased Recation Biology Inc
T6 sequence (P17706 1-415): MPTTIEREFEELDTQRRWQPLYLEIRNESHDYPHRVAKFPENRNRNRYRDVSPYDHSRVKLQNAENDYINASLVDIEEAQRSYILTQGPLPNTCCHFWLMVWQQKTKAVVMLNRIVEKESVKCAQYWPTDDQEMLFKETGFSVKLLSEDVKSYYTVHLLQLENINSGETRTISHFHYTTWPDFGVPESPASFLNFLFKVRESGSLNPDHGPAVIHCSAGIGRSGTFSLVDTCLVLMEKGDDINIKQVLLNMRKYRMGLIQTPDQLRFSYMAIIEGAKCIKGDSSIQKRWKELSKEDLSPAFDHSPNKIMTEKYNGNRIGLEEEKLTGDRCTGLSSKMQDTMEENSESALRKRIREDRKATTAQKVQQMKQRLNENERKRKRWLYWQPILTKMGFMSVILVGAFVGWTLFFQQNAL
The experiment can be described thus: Phosphatase assay PTPN2/TC-PTP. The format is biochemical.

For the next experiment, the target named is FXR (Homo sapiens, UniProt Q96RI1). As to conditions: Ogundare et al., 2010; cited from earlier work.
The next experiment concerns LXR. To be noted: Ogundare et al., 2010; cited from earlier work.
A further experiment deals with RXR/NURR1. To be noted: Ogundare et al., 2010; cited from earlier work.
Experiment [3] can be described thus: Body weight of mice after i.p. deuterated ENT-03. The format is in vivo. The source says: The presence of the deuterium on the side chain likely slows the action of the 2-methylacyl-coenzyme A racemase on C-25, the subsequent action of the dehydrogenase that produces the 24,25-trans-unsaturated derivative by removing the deuterium atoms at C24 and C25, and the subsequent hydration and oxidation at the C24 bond catalyzed by the D-bifunctional protein. Instead, the metabolism of ENT-03D3 will begin with the oxidation at C24 by CYP46A1, yielding the following compound: […]

For a further experiment, the target named is PTPN11/SHP2 (Homo sapiens, UniProt Q06124). Put plainly: Phosphatase assay PTPN11/SHP2. To be noted: Table 2C; read-out: Compound IC50 (M) PTPN11/SHP2. Format: biochemical.
PTPN11/SHP2, sequence (Q06124 whole entry): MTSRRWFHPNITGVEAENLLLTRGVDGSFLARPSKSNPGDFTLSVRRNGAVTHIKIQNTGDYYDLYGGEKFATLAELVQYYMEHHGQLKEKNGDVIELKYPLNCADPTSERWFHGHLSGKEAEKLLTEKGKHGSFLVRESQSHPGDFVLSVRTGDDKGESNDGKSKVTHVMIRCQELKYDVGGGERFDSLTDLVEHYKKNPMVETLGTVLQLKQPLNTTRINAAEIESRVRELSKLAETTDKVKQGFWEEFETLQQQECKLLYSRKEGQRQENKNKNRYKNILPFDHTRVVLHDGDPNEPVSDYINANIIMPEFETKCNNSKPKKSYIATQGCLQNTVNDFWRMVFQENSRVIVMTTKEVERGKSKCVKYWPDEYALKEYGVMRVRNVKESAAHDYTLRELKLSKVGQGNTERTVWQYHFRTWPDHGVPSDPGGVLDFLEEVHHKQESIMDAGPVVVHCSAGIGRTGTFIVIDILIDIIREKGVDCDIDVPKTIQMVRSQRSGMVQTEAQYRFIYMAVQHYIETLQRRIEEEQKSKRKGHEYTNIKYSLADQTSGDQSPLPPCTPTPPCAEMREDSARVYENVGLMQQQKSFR

T4 sequence (P67775 whole entry): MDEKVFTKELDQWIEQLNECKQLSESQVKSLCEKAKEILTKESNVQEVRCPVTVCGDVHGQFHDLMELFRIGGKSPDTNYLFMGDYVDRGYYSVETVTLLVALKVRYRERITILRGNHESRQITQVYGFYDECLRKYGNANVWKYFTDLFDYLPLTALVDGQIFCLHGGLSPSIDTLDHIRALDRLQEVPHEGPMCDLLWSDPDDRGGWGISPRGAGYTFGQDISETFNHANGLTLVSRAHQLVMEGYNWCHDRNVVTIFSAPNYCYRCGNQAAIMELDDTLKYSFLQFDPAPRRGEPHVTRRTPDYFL
T4 sequence (P30153 whole entry partner): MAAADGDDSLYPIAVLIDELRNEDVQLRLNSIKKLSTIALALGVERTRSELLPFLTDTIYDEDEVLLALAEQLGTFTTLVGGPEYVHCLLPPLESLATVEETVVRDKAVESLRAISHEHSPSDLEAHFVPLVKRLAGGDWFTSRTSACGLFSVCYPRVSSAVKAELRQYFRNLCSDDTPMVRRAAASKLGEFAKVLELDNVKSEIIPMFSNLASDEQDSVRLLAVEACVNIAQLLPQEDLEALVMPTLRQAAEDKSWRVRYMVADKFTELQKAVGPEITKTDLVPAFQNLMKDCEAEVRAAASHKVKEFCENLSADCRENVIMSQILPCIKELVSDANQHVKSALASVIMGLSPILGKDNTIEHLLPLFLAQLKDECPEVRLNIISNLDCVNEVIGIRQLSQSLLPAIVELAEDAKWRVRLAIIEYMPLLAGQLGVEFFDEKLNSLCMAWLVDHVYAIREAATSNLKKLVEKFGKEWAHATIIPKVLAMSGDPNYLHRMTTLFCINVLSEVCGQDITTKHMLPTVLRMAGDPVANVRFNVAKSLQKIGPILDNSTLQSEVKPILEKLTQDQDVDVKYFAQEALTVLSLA
T2 sequence (P62140 whole entry): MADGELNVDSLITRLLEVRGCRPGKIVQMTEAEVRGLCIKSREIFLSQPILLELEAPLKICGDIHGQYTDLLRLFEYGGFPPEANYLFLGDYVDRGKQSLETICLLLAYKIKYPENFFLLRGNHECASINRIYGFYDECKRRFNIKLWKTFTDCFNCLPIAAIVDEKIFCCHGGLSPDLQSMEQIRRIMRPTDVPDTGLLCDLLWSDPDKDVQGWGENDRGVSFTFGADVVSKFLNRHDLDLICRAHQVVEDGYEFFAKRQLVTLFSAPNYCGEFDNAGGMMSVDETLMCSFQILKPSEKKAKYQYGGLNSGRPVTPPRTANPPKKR
T5 sequence (P29350 whole entry): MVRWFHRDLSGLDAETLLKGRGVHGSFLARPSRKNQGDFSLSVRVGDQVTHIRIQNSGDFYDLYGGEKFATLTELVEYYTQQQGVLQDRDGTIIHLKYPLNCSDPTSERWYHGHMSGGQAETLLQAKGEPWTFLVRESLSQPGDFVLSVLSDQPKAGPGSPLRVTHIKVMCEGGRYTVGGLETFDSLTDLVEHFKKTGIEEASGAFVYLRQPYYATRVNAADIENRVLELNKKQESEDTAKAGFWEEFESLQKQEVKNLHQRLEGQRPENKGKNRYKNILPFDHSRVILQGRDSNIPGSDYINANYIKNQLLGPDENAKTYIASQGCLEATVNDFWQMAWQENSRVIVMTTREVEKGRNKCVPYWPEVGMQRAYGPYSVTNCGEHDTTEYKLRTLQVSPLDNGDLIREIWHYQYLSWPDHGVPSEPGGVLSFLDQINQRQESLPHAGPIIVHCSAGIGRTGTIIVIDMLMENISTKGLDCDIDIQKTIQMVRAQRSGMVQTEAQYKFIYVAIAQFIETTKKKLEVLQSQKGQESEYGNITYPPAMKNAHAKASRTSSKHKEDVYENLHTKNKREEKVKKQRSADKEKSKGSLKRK
FXR, sequence (Q96RI1 whole entry, species assumed): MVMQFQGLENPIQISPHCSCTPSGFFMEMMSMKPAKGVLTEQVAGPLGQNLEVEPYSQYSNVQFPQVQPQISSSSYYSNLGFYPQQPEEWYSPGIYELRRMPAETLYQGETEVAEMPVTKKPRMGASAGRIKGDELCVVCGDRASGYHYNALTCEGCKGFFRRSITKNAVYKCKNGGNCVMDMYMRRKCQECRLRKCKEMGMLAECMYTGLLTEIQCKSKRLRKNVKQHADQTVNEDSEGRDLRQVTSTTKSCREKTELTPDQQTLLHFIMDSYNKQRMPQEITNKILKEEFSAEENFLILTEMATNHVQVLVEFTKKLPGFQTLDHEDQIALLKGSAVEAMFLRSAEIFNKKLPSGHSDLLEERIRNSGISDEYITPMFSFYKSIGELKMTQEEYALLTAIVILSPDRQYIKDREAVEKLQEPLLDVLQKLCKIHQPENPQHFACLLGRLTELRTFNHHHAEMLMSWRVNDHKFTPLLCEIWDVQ
T3 sequence (P62136 whole entry): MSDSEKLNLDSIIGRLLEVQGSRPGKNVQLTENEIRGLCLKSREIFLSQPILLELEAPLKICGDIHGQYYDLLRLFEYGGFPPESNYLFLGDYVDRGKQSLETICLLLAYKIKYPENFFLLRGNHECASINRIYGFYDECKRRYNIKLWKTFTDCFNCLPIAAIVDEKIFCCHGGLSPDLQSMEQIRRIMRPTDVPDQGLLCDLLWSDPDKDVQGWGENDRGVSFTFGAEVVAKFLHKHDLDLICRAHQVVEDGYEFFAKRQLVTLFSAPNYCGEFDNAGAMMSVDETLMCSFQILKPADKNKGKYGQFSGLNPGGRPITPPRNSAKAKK

Consider `CC(C)[C@@H](CC[C@@H](C)[C@H]1CC[C@H]2[C@@H]3[C@H](O)C[C@H]4C[C@@H](NCCCNCCCCN)CC[C@]4(C)[C@H]3CC[C@]12C)OS(=O)(=O)O` (single isomer, unassigned) [ENT-01, squalamine phosphate], for which the “mRNA levels for all of the genes in Table 5A, in words” value in the experiment with stomach mRNA was “significant increase”. In experiment [1] (Old vs young, both treated), the “number of significant features, Down-regulated, fold change threshold 1.3×” value came to 1606; the “number of significant features, Down-regulated, fold change threshold 2×” value is given as 267; the “number of significant features, Down-regulated, fold change threshold 4×” value is 69; the “number of significant features, Down-regulated, fold change threshold 8×” value was found to be 36. Besides, in [1] (Old vs young, both treated), the “number of significant features, Down-regulated, fold change threshold 16×” value came to 27; the “number of significant features, Down-regulated, fold change threshold Any” value is 7534; the “number of significant features, Up-regulated, fold change threshold 1.3×” value stood at 1647; the “number of significant features, Up-regulated, fold change threshold 2×” value is 559. Moreover, in [1] (Old vs young, both treated), the “number of significant features, Up-regulated, fold change threshold 4×” value worked out at 263; the “number of significant features, Up-regulated, fold change threshold 8×” value is reported as 178; the “number of significant features, Up-regulated, fold change threshold 16×” value is given as 135; the “number of significant features, Up-regulated, fold change threshold Any” value is given as 7479. In addition, in [1] (treatment vs control (old)), the “number of significant features, Down-regulated, fold change threshold 1.3×” value is on record as 2235; the “number of significant features, Down-regulated, fold change threshold 2×” value is recorded as 431; the “number of significant features, Down-regulated, fold change threshold 4×” value is 66; the “number of significant features, Down-regulated, fold change threshold 8×” value amounted to 25. Moreover, in experiment [1] (treatment vs control (old)), the “number of significant features, Down-regulated, fold change threshold 16×” value stood at 11; the “number of significant features, Down-regulated, fold change threshold Any” value is 7460; the “number of significant features, Up-regulated, fold change threshold 1.3×” value was 2430; the “number of significant features, Up-regulated, fold change threshold 2×” value was 766. Besides, in experiment [1] (treatment vs control (old)), the “number of significant features, Up-regulated, fold change threshold 4×” value worked out at 317; the “number of significant features, Up-regulated, fold change threshold 8×” value came out at 168; the “number of significant features, Up-regulated, fold change threshold 16×” value came to 116; the “number of significant features, Up-regulated, fold change threshold Any” value came to 7553. Further, in [1] (treatment vs control (young)), the “number of significant features, Down-regulated, fold change threshold 1.3×” value is 2367; the “number of significant features, Down-regulated, fold change threshold 2×” value was 642; the “number of significant features, Down-regulated, fold change threshold 4×” value amounted to 144; the “number of significant features, Down-regulated, fold change threshold 8×” value is 47. Further, in [1] (treatment vs control (young)), the “number of significant features, Down-regulated, fold change threshold 16×” value is listed as 12; the “number of significant features, Down-regulated, fold change threshold Any” value is 7553; the “number of significant features, Up-regulated, fold change threshold 1.3×” value is 1430; the “number of significant features, Up-regulated, fold change threshold 2×” value is 232. In addition, in experiment [1] (treatment vs control (young)), the “number of significant features, Up-regulated, fold change threshold 4×” value is 58; the “number of significant features, Up-regulated, fold change threshold 8×” value worked out at 38; the “number of significant features, Up-regulated, fold change threshold 16×” value was 28; the “number of significant features, Up-regulated, fold change threshold Any” value is 7460.
As for `CC(CCCC(C)C1CCC2C3C(O)CC4CC(NCCCNCCCCN)CCC4(C)C3CC(O)C12C)C(=O)O` (single isomer, unassigned) [ENT-05], the pIC50 at PTPN11/SHP2-FL (E76K) was 7.37.
Regarding `CC(CCCC(C)C1CCC2C3C(O)CC4CC(NCCCNCCCCN)CCC4(C)C3CCC12C)C(=O)O` (single isomer, unassigned) [ENT-06], on PP1B, the “activity at PP1B, in words” value was “inactive”. For the same compound, the “activity at PP1A, in words” value at PP1A is “inactive”. Further, the “activity at PP2A alpha, in words” value in experiment [2] was “inactive”. For the same compound, the “activity at PTPN6/SHP1, in words” value on PTPN6/SHP1 was “inactive”. Besides, the “activity at PTPN2, in words” value at PTPN2/TC-PTP is “inactive”. The compound also gave a negative logarithm of the IC50 (pIC50) against PTPN11/SHP2-FL (E76K) of 6.46.
For `C[C@H](CCC[C@@H](C)[C@H]1CCC2C3C(CC[C@@]21C)[C@@]1(C)CCC(=O)C=C1C[C@H]3O)C(=O)O` (stereo partly drawn) [7-HOCA, 7-alpha hydroxy-3-oxo-4-cholestenoic acid], the “activation of FXR receptor” value at FXR is listed as “did not activate”. Moreover, the “activation of LXR receptor” value in the experiment on LXR is recorded as “did not activate”. Moreover, in the experiment with RXR/NURR1, the “activation of RXR/NURR1 receptors” value is reported as “did not activate”.
Consider `[2H]C([2H])(CCC(C)C1CCC2C3C(O)CC4CC(NCCCNCCCCNCCCN)CCC4(C)C3CCC12C)C([2H])(C)C(=O)O` (stereo not drawn) [ENT-03D3], for which, in [3], the “effect on body weight, in words” value was “gained weight”.
In the case of `CCc1oc2cc(S(=O)(=O)Nc3ccc(S(=O)(=O)Nc4nccs4)cc3)ccc2c1C(=O)c1cc(Br)c(O)c(Br)c1` [PTP1B Inhibitor, 3-(3,5-Dibromo-4-hydroxy-benzoyl)-2-ethyl-benzofuran-6-sulfonicacid-(4-(thiazol-2-ylsulfamyl)-phenyl)-amide], the IC50 on PTPN11/SHP2 is 1.82e-06 M.
